Like-named read-outs stand apart in the source and are kept apart here.
Key:
[1] = tested on: Calpain activity in SH-SY5Y cells (SBDP-150); assay: SH-SY5Y Spectrin western blot assay (SBDP-150 breakdown product, A23187-induced); format: cell-based; details: Homo sapiens, SH-SY5Y cells, read-out: SH-SY5Y Spectrin IC50
[2] = biological target: T1, Human Calpain 1/NS1 (Homo sapiens, UniProt P07384); assay: Calpain inhibition continuous fluorescence (FRET) assay, Human Calpain 1/NS1; format: biochemical; details: read-out: Human Calpain 1/NS1 IC50
T1 sequence (P07384 1-714): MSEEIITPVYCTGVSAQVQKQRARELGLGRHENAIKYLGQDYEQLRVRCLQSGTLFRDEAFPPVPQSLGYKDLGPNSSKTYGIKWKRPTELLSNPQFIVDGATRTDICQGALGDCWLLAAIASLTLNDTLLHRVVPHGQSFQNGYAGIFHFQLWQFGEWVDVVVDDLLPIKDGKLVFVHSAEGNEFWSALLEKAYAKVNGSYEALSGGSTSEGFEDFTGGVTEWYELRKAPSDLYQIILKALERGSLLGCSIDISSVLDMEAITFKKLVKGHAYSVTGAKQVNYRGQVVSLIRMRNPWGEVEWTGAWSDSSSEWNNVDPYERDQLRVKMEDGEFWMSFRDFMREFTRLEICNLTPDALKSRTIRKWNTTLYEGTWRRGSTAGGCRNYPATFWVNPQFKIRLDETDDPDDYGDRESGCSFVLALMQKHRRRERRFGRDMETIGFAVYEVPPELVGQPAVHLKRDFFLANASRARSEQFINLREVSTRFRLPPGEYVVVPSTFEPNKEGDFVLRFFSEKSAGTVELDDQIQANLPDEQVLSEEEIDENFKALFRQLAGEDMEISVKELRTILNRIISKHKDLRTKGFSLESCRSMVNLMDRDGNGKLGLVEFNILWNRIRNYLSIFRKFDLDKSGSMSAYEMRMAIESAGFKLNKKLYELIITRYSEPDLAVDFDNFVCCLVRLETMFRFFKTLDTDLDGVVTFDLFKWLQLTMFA
T1 sequence (P04632 1-268 partner): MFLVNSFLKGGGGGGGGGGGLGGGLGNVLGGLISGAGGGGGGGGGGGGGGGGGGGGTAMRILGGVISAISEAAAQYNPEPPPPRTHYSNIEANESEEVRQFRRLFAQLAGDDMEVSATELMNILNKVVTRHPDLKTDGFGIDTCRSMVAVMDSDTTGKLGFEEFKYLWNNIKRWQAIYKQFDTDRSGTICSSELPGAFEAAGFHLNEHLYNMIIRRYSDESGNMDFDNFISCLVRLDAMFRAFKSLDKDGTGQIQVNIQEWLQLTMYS
Outline: (§1)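 Continuous FRET read (ex 490/em 520 nm, 10 min) of calpain 1, 2 or 9 cleaving an internally quenched 5-FAM peptide, triggered by substrate with CaCl2 after enzyme–inhibitor incubation at ambient 25 °C, pH 7.5 Tris/NaCl/DTT buffer. IC50 from initial rates (1-5 min) via 4-parameter fit.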

[3] = tested on: Calpain activity in SH-SY5Y cells; assay: SH-SY5Y + AMC fluorescence assay (Suc-LLVY-AMC substrate); format: cell-based; details: read-out: SH-SY5Y + AMC IC50
[4] = biological target: T2, Human Calpain 9/NS1 (Homo sapiens, UniProt O14815); assay: Calpain inhibition continuous fluorescence (FRET) assay, Human Calpain 9/NS1; format: biochemical; details: read-out: Human Calpain 9/NS1 IC50
T2 sequence (O14815 1-690): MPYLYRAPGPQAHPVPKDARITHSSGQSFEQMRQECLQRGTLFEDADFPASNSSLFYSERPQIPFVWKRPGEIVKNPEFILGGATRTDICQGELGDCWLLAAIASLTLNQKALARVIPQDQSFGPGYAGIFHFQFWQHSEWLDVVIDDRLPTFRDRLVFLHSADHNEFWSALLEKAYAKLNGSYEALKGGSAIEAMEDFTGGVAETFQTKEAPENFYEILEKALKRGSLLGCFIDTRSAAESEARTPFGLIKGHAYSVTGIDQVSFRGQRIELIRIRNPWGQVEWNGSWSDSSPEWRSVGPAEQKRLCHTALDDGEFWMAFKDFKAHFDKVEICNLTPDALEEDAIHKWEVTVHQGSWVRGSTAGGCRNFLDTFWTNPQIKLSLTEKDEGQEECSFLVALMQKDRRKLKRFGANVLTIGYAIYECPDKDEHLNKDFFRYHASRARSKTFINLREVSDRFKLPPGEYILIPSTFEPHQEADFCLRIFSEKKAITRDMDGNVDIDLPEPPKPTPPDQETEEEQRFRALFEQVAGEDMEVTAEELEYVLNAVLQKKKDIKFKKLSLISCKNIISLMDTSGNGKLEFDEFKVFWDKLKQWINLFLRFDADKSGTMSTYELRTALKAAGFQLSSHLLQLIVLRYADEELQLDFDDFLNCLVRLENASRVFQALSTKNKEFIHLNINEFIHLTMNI
T2 sequence (P04632 1-268 partner): T1 sequence (P04632 1-268 partner)
Outline: as §1

[5] = Column D, A23187-induced SBDP-150
[6] = A23187-induced SBDP-150, western blot

SMILES	IC50 [1, 5] [µM]	IC50 ([2]; Column A) [µM]	IC50 ([3]; Column E) [µM]	IC50 ([4]; Column C) [µM]	IC50 [1, 6] [µM]	IC50 [2] [µM]	IC50 [3] [µM]	IC50 [4] [µM]
NC(=O)C(=O)[C@H](Cc1ccccc1)NC(=O)c1cnoc1-c1ccccc1 [Compound 60, (S)—N-(4-amino-3,4-dioxo-1-phenylbutan-2-yl)-5-phenylisoxazole-4-carboxamide]	< 10	< 3	< 10	< 3				
Cn1cc(C(=O)N[C@@H](Cc2ccccc2)C(=O)C(N)=O)c(-c2ccccc2)n1 [Compound 32, (S)—N-(4-amino-3,4-dioxo-1-phenylbutan-2-yl)-1-methyl-3-phenyl-1H-pyrazole-4-carboxamide]	< 10	< 3	> 25	< 3				
CCCC[C@H](NC(=O)c1oc(C)nc1-c1ccccc1)C(=O)C(N)=O [Compound 265, (S)—N-(1-amino-1,2-dioxoheptan-3-yl)-2-methyl-4-phenyloxazole-5-carboxamide]	< 10	< 3	> 25	< 3				
Cl.Cn1cc(C(=O)NC(Cc2ccccc2)C(=O)C(N)=O)c(-c2cccc(F)c2)n1 (stereo not drawn) [Compound 485, N-(4-amino-3,4-dioxo-1-phenylbutan-2-yl)-3-(3-fluorophenyl)-1-methyl-1H-pyrazole-4-carboxamide hydrochloride]					10 to 25	< 3	10 to 25	< 3
NC(=O)C(=O)[C@H](Cc1ccccc1)NC(=O)c1nsnc1-c1ccccc1 [Compound 72, (S)—N-(4-amino-3,4-dioxo-1-phenylbutan-2-yl)-4-phenyl-1,2,5-thiadiazole-3-carboxamide]	< 10	< 3	< 10	< 3				
NC(=O)C(=O)C(Cc1ccccc1)NC(=O)c1cn(C(F)F)nc1-c1ccccc1 (stereo not drawn) [Compound 403, N-(4-amino-3,4-dioxo-1-phenylbutan-2-yl)-1-(difluoromethyl)-3-phenyl-1H-pyrazole-4-carboxamide]					< 10	< 3	< 10	< 3
Cn1cc(C(=O)NC(Cc2ccccc2)C(=O)C(N)=O)c(-c2ccccc2F)n1 (stereo not drawn) [Compound 484, N-(4-amino-3,4-dioxo-1-phenylbutan-2-yl)-3-(2-fluorophenyl)-1-methyl-1H-pyrazole-4-carboxamide]					10 to 25	< 3	< 10	< 3
Cc1nc(-c2ccccc2F)c(C(=O)NC(Cc2ccccc2)C(=O)C(N)=O)o1 (stereo not drawn) [Compound 405, N-(4-amino-3,4-dioxo-1-phenylbutan-2-yl)-4-(2-fluorophenyl)-2-methyloxazole-5-carboxamide]						< 3		< 3
Cc1nc(-c2cccc(F)c2)c(C(=O)NC(Cc2ccccc2)C(=O)C(N)=O)o1 (stereo not drawn) [Compound 404, N-(4-amino-3,4-dioxo-1-phenylbutan-2-yl)-4-(3-fluorophenyl)-2-methyloxazole-5-carboxamide]					< 10	< 3	< 10	< 3
Cc1cc(C(=O)NC(Cc2ccccc2)C(=O)C(N)=O)n(-c2ccccn2)n1 (stereo not drawn) [Compound 495, N-(4-amino-3,4-dioxo-1-phenylbutan-2-yl)-3-methyl-1-(pyridin-2-yl)-1H-pyrazole-5-carboxamide]					10 to 25	< 3	< 10	< 3
NC(=O)C(=O)[C@H](Cc1ccccc1)NC(=O)c1cn(C2CC2)nc1-c1ccccc1 [Compound 250, (S)—N-(4-amino-3,4-dioxo-1-phenylbutan-2-yl)-1-cyclopropyl-3-phenyl-1H-pyrazole-4-carboxamide]	10 to 25	< 3	10 to 25	< 3				
NC(=O)C(=O)C(Cc1ccccc1)NC(=O)c1cn(C2CC2)nc1-c1ccccc1 (stereo not drawn) [Compound 406, N-(4-amino-3,4-dioxo-1-phenylbutan-2-yl)-1-cyclopropyl-3-phenyl-1H-pyrazole-4-carboxamide]					10 to 25	< 3	< 10	< 3
NC(=O)C(=O)[C@H](Cc1ccccc1)NC(=O)c1snnc1-c1ccccc1 [Compound 44, (S)—N-(4-amino-3,4-dioxo-1-phenylbutan-2-yl)-4-phenyl-1,2,3-thiadiazole-5-carboxamide]	10 to 25	< 3	> 25	< 3				
Cc1nc(-c2ccccc2)c(C(=O)NC(Cc2ccccc2)C(=O)C(N)=O)o1 (stereo not drawn) [Compound 357, N-(4-amino-3,4-dioxo-1-phenylbutan-2-yl)-2-methyl-4-phenyloxazole-5-carboxamide]					< 10	< 3	< 10	< 3

— patent US11339130B1 (Blade Therapeutics, Inc., priority 2016, dated 2022)
